In US9809623B2, “α4β7 peptide monomer and dimer antagonists” (Protagonist Therapeutics, Inc., priority 2014, dated 2017):
Numbered stars: 1 amine (or outer) side, 2 acyl side, 3 side chain; on linkers, the order of the positions; unused ones are H or OH. Bridge positions count the residues as written; N and C are the ends. Square brackets hold non-standard residues; d marks the D form. Peptide text beside a SMILES is read from it. I, II: the chains in the order shown. 2Nal = N[C@@H](Cc1ccc2ccccc2c1)C(=O)O; Diglycolyl = O=C(COCC(=O)[*:2])[*:1]; NMeR = CN[C@@H](CCCNC(=N)N)C(=O)O; Tic = O=C(O)[C@@H]1Cc2ccccc2CN1; β3hE = N[C@@H](CCC(=O)O)CC(=O)O; Pen = CC(C)(S)[C@H](N)C(=O)O

Experiments:
[1] = biological target: T1, α4β7 (Mus musculus, UniProt P26011+Q00651); assay: α4β7 Cell Adhesion Assay (Mouse), TK1 cells; assay type: cell-based; details: Table 3-B, Potency (α4β7); range classes; read-out: α4β7 cell(MU) IC50
T1 construct: host or cells: TK1 mouse T cells
Method: TK1 cells (ATCC # ATCC-CRL-2396) were cultured in RPMI 1640 with 2 mM L-glutamine adjusted to contain 1.5 g/L sodium bicarbonate, 4.5 g/L glucose, 10 mM HEPES, and 1.0 mM sodium pyruvate (ATCC#30-2001) and supplemented with 0.1 mM non-essential amino acids, (ATCC #30-2116) 0.05 mM 2-mercaptoethanol (Invitrogen #21985) and 10% serum (Fetal Bovine Serum, Invitrogen #16140-071), and Penicillin-Streptomycin (Invitrogen #15140-122) at 100 units of penicillin and 100 μg of streptomycin per ml. The cells were washed two times in DMEM medium (ATCC #30-2002) supplemented with 0.1% BSA, 10 mM HEPES pH 7 and 1 mM MnCl2. The cells were re-suspended in supplemented DMEM medium at a density of 4×10^6 cells/ml.
A Nunc MaxiSorp plate was coated with Recombinant human MAdCAM-1 Fc Chimera (R&D #6065-MC) at 200 ng per well in 100 μl per well in 1×PBS and incubated at 4° C. overnight. The solution was then removed by shaking, blocked with 250 ul per well PBS containing 1% BSA, and incubated at 37° C. for 1 hr. The solution was removed by shaking. DATK 32 (anti-mouse α4β7) and peptides were diluted by serial dilution in a final volume of 50 ul per well (2× concentration). To each well, 50 ul of cells (200,000 cells) are added and the plate is incubated at 37° C., 5% CO2 for 30-45 min to allow cell adhesion. The plate was manually washed three times with supplemented DMEM, 100 ul per wash. After the final wash, 100 ul/well of supplemented DMEM and […] of MTT reagent (ATTC cat#30-1010K) was added to each well. Wells were incubated at 37° C. with 5% CO2 for 2-3 hrs until purple precipitate was visible. 100 μl of Detergent Reagent (ATTC cat#30-1010K) was added to each well. The plate was then wrapped with Para film to prevent evaporation, and left overnight at room temperature in the dark. The plate was shaken for 5 min and the absorbance at 570 nm was measured. To calculate the dose response, the absorbance value of control wells not containing cells was subtracted from each test well.

[2] = biological target: T2, α4β7 (Homo sapiens, UniProt P13612+P26010); assay: α4β7-MAdCAM Cell Adhesion Assay (RPMI 8866 human cells); assay type: cell-based; design: host or cells: RPMI 8866 human B lymphoblastoid cells; details: Table 3-B, Potency (α4β7); range classes; read-out: α4β7 cell (Hu) IC50
In short: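 Washed RPMI 8866 cells (200,000/well) in DMEM with 0.1% BSA, 10 mM HEPES pH 7, 1 mM MnCl2 adhered to rh MAdCAM-1/Fc-coated wells with serially diluted peptides, 30-45 min at 37 °C. After three washes, bound cells quantified by MTT, A570, cell-free background subtracted for dose response.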

[3] = biological target: T3, α4β1 (Homo sapiens, UniProt P05556+P13612, DEL729-798); assay: α4β1-VCAM Competition ELISA; assay type: binding; details: Table 3-B, Selectivity (α4β1); range classes; read-out: α4β1 ELISA IC50
T3 construct: purchased R&D Systems 5668-A4
Method: A Nunc MaxiSorp plate was coated with rh VCAM-1/CD106 Fc chimera (R&D #862-VC) at 400 ng/well in 50 ul per well in 1×PBS and incubated overnight at 4° C. The solution was removed by shaking and then blocked with 250 ul of 1% BSA in 1×PBS per well. The wells were then incubated at room temperature for 1 hr with shaking. Each well was then washed once with wash buffer (50 mM Tris-HCl pH7.6, 100 mM NaCL, 1 mM MnCl2 or MgCl2, 0.05% Tween-20). 25 ul of serial dilutions of peptides starting at 200 μM in assay buffer (Assay buffer: 50 mM Tris-HCl pH7.6, 100 mM NaCl, 1 mM MnCl2 or MgCl2, 0.05% Tween-20) was added to each well. Additionally, 25 ul of α4β1 (R&D Systems #5668-A4) was added to each well at a fixed concentration of 120 nM. The final peptide and α4β1 concentrations were 100 μM and 60 nM, respectively. The plates were then incubated at 37° C. for 2 hr. The solution was then removed by shaking, and each well was washed three times with wash buffer. 50 ul of 9F10 antibody at 4 ug/ml (purified mouse anti-human CD49d, BD Bioscience Cat#555502) was then added to each well, and the plate was incubated at room temperature for 1 hr with shaking. The solution was again removed by shaking, and each well was washed three times with wash buffer. 50 ul of peroxidase-conjugated AffiniPure Goat anti-mouse IgG (Jackson immune research cat #115-035-003) diluted in 1:5000 in assay buffer was added to each well. The plate was incubated at room temperature for 30 min with shaking. Each well was then washed 3 times with wash buffer. 100 ul of TMB was then added to each well and closely observe during developing time. The reaction was stepped with 2N H2SO4 and absorbance was read at 450 nm.

[4] = biological target: T2, α4β7; assay: PBMC Memory T Cell Adhesion Assay, adhesion to MAdCAM-1; assay type: cell-based; details: Table 3-B; range classes; read-out: PBMC IC50
Method: Fresh CD4+/CD45RO+ memory T cells were isolated from human peripheral blood mononuclear cell (PBMC) donors by Aragen Bioscience Inc. (Morgan Hill, Calif.). The assay plate was prepared using IgG Fc capture antibody (donkey anti human) immobilized at 500 ng/well in 50 mM sodium bicarbonate buffer, pH 9.5, ON, 4C onto a Greiner Fluotrac plate (100 ul per well). The plate was rinsed two time with Blocking Buffer (25 mM Tris HCl, pH7.5, 150 mM NaCl, 1.5% BSA, 0.05% Tween), and blocked with Blocking Buffer for 2 hours at 37 C or 5 hours at RT using 200 ul per well. The Blocking Buffer was removed and either MAdCAM-1 or VCAM-1 at 400 ng/well in Blocking Buffer was added and the plate incubated overnight at 4C (100 ul per well). The plate was washed two times with Blocking Buffer, and rinsed once with 200 ul Binding Media (DMEM phenol red free, 10 mM HEPES, 1×Na pyruvate, 1× Glutamine, and supplemented with 1 mM MnCl2 prior to use). To prepare cells, approximately 25 million CD4+/CD45RO+ memory T cells were counted by trypan blue exclusion using a haemocytometer to determine viability and cell count. The cells were transferred to a 50 ml conical tube, and centrifuged at 1200 rpm for 10 minute. The media was aspirated and the cell pellet resuspended in 15 ml Binding Media. The cells were centrifuged again and resuspended in the appropriate amount of Binding Media to be used for assays (50 ul of cells per well at 2× the final density). To each well, and equal volume (50 ul) of test compound was added and the plate was incubated for 1.5 hours at 37 C, 5% CO2. Each well was rinsed 3× with 150 ul per well of Binding Media. […] The plate was incubated at 37 C, 5% CO2, for 45 minutes. The plate was protected from light by using black adhesive seals. Fluorescence intensity was measured using a Molecular Devices Gemini EM Fluorescent Plate Reader (Ex 485/Em530, Bottom Read, Reading Sensitivity=20). IC50 curves are generated using Graph Pad Prism and the curves analyzed using analyzed using a non-linear regression (four parameters) algorithm. The log (concentration) versus RFU (Ex485/Em530) was plotted to determine IC50 values.

[5] = test system: cell types in human whole blood; assay: FACS binding specificity in human whole blood; assay type: cell-based; details: 1 nM, 1 mM MnCl2
Method: To further evaluate the selectivity of Peptide X in human blood, the fluorescent dye Alexa 647 was conjugated to Peptide X at the same position used for attaching biotin. […] Heparinized human whole blood was supplemented with 1 mM MnCl2, and stained with the Peptide X-Alexa 647 conjugate or biotinylated vedolizumab for 1 hour at room temperature. The samples were fixed (red blood cells lysed) and washed. The vedolizumab samples were stained separately with streptavidin Alexa 647 for stain for 30 minutes at room temperature. FACS analysis was used to assess binding of the peptide or vedolizumab to a broad panel of cell types including NK cells, basophils, monocytes, eosinophils, neutrophils, CD4 naïve T cells, CD4 memory T cells, CD8 naïve T cells, CD8 memory T cells, and B cells. […] The binding specificity for vedolizmab shown in Table 7 is also very similar to that reported in the literature (Soler et al, JPET 330:864-875, 2009).

T3 sequence (P13612 34-977 limits assumed, stated change not applied): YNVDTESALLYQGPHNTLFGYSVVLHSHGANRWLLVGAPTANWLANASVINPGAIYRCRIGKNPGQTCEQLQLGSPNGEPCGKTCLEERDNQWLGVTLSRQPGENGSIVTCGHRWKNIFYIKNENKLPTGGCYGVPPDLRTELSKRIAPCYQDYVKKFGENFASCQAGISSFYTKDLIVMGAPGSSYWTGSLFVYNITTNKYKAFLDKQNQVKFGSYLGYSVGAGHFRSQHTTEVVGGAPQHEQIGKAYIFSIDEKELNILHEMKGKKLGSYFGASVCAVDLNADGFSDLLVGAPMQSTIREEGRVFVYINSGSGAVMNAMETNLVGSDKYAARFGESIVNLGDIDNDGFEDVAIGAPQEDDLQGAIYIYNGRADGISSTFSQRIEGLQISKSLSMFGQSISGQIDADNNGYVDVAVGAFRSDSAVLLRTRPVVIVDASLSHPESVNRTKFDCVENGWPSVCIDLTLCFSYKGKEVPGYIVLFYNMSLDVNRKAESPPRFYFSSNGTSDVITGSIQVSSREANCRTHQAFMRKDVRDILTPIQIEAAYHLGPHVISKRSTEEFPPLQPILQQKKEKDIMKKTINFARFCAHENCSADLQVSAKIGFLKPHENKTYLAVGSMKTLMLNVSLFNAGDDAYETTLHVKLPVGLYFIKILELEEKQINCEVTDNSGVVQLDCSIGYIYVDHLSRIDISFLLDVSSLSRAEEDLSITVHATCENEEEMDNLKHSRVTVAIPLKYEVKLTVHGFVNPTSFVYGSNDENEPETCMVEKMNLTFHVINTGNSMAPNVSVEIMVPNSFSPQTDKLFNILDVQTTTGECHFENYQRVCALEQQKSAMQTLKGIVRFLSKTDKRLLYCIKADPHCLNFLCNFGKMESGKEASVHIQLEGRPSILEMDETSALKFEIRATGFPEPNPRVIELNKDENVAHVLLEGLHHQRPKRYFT
T3 sequence (P05556 21-728 limits assumed, stated change not applied): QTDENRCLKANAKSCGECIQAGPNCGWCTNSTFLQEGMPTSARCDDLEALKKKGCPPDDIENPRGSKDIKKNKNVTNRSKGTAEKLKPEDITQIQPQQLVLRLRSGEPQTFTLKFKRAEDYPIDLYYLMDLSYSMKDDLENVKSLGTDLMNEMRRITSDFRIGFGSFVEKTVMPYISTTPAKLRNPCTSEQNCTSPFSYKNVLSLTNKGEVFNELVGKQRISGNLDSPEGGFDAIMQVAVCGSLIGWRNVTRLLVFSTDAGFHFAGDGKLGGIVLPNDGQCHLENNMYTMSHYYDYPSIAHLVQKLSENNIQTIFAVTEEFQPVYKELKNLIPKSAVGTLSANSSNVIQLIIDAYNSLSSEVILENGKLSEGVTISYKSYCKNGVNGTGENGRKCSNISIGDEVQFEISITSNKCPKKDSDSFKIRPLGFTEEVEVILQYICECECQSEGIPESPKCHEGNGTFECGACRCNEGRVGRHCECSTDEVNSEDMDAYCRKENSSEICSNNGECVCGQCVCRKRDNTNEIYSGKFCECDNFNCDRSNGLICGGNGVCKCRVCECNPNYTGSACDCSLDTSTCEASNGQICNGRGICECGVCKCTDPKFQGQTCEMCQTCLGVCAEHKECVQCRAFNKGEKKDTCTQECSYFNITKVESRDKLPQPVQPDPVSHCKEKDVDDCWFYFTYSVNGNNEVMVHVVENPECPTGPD
T1 sequence (Q00651 34-1039 limits assumed): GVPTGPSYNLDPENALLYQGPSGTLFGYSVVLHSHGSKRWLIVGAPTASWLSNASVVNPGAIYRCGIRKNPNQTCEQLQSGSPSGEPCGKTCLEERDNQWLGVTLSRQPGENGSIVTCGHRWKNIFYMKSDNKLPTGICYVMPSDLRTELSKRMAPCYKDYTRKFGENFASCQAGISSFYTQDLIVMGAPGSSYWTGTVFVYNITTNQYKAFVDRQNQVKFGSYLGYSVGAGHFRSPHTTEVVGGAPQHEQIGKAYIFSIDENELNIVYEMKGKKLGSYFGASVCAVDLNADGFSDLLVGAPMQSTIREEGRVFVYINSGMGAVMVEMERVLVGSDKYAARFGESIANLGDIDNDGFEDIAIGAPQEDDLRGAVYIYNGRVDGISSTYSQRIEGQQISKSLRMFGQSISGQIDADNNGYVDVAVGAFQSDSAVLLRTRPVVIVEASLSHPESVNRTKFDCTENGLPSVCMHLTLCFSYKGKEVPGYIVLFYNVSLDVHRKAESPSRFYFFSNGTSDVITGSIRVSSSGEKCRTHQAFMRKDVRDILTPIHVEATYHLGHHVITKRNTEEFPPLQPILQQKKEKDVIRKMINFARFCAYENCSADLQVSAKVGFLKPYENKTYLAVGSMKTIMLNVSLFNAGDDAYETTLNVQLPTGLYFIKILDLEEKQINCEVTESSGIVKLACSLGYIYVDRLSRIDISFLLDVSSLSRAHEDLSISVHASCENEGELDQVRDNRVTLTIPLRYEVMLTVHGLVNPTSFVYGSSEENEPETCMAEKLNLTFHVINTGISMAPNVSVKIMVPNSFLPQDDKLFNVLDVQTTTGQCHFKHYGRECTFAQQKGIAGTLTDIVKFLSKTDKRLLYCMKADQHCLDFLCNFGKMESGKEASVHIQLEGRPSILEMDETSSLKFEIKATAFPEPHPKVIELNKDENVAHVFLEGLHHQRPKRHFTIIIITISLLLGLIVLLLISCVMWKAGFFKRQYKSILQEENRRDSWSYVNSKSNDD
T1 sequence (P26011 20-806): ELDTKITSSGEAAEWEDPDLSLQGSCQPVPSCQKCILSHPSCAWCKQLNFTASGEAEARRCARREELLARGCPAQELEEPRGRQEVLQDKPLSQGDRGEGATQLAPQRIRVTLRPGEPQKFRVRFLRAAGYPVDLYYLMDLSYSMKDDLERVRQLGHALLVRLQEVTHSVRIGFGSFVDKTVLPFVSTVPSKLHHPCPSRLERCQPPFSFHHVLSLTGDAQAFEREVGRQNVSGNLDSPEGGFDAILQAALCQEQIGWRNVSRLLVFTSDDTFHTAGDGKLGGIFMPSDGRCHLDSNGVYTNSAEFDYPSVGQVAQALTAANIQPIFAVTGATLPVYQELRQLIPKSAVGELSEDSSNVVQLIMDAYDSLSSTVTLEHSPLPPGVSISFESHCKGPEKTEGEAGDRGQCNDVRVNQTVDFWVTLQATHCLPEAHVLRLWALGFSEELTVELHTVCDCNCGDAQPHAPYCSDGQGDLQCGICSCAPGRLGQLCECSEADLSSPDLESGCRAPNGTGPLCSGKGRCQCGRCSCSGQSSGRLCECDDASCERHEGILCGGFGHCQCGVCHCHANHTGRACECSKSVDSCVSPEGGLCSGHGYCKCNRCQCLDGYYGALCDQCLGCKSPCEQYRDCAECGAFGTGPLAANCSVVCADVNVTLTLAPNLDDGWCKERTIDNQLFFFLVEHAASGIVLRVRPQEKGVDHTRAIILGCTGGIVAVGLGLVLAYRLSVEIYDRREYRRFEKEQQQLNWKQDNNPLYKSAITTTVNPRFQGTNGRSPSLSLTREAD

Row | Compound | IC50 [1] | IC50 [2] | IC50 [3] | also measured
1 | COC(=O)CC[C@H](NC(=O)[C@H](Cc1c[nH]c2ccccc12)NC(=O)[C@H]1NC(=O)[C@H](CC(C)C)NC(=O)[C@H]([C@@H](C)O)NC(=O)[C@H](CC(=O)O)NC(=O)[C@H](CO)NC(=O)[C@H](CCCNC(=N)N)N(C)C(=O)[C@@H](NC(C)=O)C(C)(C)SSC1(C)C)C(=O)N[C@H](CCCCNC(=O)COCC(=O)NCCCC[C@@H](NC(=O)[C@H](CCC(=O)OC)NC(=O)[C@H](Cc1c[nH]c2ccccc12)NC(=O)[C@H]1NC(=O)[C@H](CC(C)C)NC(=O)[C@H]([C@@H](C)O)NC(=O)[C@H](CC(=O)O)NC(=O)[C@H](CO)NC(=O)[C@H](CCCNC(=N)N)N(C)C(=O)[C@@H](NC(C)=O)C(C)(C)SSC1(C)C)C(N)=O)C(N)=O [compound 86] (I: Ac-[Pen][NMeR]SDTL[Pen]WE(OMe)[dK]-NH2 / II: Ac-[Pen][NMeR]SDTL[Pen]WE(OMe)[dK]-NH2; disulfide I:1-I:7, II:1-II:7; linker I:10-II:10 via Diglycolyl) | < 10 nM | < 10 nM |  | 
2 | CC(=O)N[C@@H]1C(=O)N(C)[C@@H](CCCNC(=N)N)C(=O)N[C@@H](CO)C(=O)N[C@@H](CC(=O)O)C(=O)N[C@@H]([C@@H](C)O)C(=O)N[C@@H](CC(C)C)C(=O)N[C@H](C(=O)N[C@@H](Cc2c[nH]c3ccccc23)C(=O)N[C@@H](CCC(=O)O)CC(=O)O)C(C)(C)SSC1(C)C [compound 146] (Ac-[Pen][NMeR]SDTL[Pen]W[β3hE]-OH; disulfide 1-7) | 50 to 100 nM | 50 to 100 nM | 1000 to 10000 nM | 
3 | CC(=O)N[C@@H]1C(=O)N(C)[C@@H](CCCNC(=N)N)C(=O)N[C@@H](CO)C(=O)N[C@@H](CC(=O)O)C(=O)N[C@@H]([C@@H](C)O)C(=O)N[C@@H](CC(C)C)C(=O)N[C@H](C(=O)N2Cc3ccccc3C[C@H]2C(=O)N[C@@H](CCC(=O)O)CC(N)=O)C(C)(C)SSC1(C)C [compound 154] (Ac-[Pen][NMeR]SDTL[Pen][Tic][β3hE]-NH2; disulfide 1-7) | 1000 to 10000 nM | 100 to 500 nM | 1000 to 10000 nM | 
4 | CC(=O)N[C@@H]1C(=O)N(C)[C@@H](CCCNC(=N)N)C(=O)N[C@@H](CO)C(=O)N[C@@H](CC(=O)O)C(=O)N[C@@H]([C@@H](C)O)C(=O)N[C@@H](CC(C)C)C(=O)N[C@H](C(=O)N[C@@H](Cc2ccc3ccccc3c2)C(=O)N[C@@H](CCC(=O)O)CC(N)=O)C(C)(C)SSC1(C)C [compound 155] (Ac-[Pen][NMeR]SDTL[Pen][2Nal][β3hE]-NH2; disulfide 1-7) | 25 to 50 nM | 25 to 50 nM | 1000 to 10000 nM | 
5 | CC(=O)N[C@@H]1C(=O)N(C)[C@@H](CCCNC(=N)N)C(=O)N[C@@H](CO)C(=O)N[C@@H](CC(=O)O)C(=O)N[C@@H]([C@@H](C)O)C(=O)N[C@@H](CC(C)C)C(=O)N[C@H](C(=O)N[C@@H](Cc2ccc(C(C)(C)C)cc2)C(=O)N[C@@H](CCC(=O)O)CC(=O)N[C@H](CCCCNC(=O)CN(CC(=O)NCCCC[C@@H](NC(=O)C[C@H](CCC(=O)O)NC(=O)[C@H](Cc2ccc(C(C)(C)C)cc2)NC(=O)[C@H]2NC(=O)[C@H](CC(C)C)NC(=O)[C@H]([C@@H](C)O)NC(=O)[C@H](CC(=O)O)NC(=O)[C@H](CO)NC(=O)[C@H](CCCNC(=N)N)N(C)C(=O)[C@@H](NC(C)=O)C(C)(C)SSC2(C)C)C(N)=O)C(=O)CCN)C(N)=O)C(C)(C)SSC1(C)C [compound 166] |  | < 10 nM |  | IC50 [4]: < 10 nM
6 | vedolizumab [reference compound] |  |  |  | Percent positive staining, Basophils [5]: 86%; Percent positive staining, CD4 memory T cells [5]: 22%; Percent positive staining, CD4 naïve T cells [5]: 55%; Percent positive staining, CD8 memory T cells [5]: 36%; Percent positive staining, CD8 naïve T cells [5]: 53%; Percent positive staining, CD19+ B cells [5]: 85%; Percent positive staining, Eosinophils [5]: 91%; Percent positive staining, Monocytes [5]: 7%; Percent positive staining, NK cells CD16+ 56+ [5]: 42%; Percent positive staining, Neutrophils [5]: 0.45%
